Measurements from patent US12257287B2, “Glucagon-derived peptide and use thereof” (Tianjin Institute of Pharmaceutical Research Co., Ltd., priority 2018, dated 2025).
Numbered stars: 1 amine (or outer) side, 2 acyl side, 3 side chain; on linkers, the order of the positions; unused ones are H or OH. Square brackets hold non-standard residues; d marks the D form. Side chains are listed from the residue outwards. Peptide text beside a SMILES is read from it. * marks the point of attachment. C20 diacid = O=C(O)CCCCCCCCCCCCCCCCCCC(=O)*; C18 diacid = O=C(O)CCCCCCCCCCCCCCCCC(=O)*; γGlu = O=C(O)[C@H](CCC(=O)[*:2])N[*:1]; AEEA = NCCOCCOCC(=O)O; Aib = CC(C)(N)C(=O)O

Target: T1, GC receptor (Homo sapiens, UniProt P47871)
T1 construct: expressed in transfected cells; host or cells: HEK293 cells
T1 sequence (P47871 26-477): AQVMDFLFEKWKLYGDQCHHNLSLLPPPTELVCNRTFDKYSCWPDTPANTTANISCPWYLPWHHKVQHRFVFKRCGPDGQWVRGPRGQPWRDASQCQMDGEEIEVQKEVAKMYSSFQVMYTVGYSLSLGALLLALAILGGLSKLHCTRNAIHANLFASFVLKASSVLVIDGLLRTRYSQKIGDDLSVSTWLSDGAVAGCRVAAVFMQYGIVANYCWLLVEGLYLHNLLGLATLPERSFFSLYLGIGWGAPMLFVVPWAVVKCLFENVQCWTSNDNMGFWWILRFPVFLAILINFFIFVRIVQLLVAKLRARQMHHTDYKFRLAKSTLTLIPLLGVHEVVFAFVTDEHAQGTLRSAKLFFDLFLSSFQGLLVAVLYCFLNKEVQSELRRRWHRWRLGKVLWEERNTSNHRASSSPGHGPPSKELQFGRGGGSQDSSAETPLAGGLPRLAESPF
Assay: GC receptor mediated cAMP production in vitro (HEK293 cells transfected with GC receptor)
Assay type: cell-based
Conditions: 20 min at 37° C., read-out: GCGR (nM EC50)
Description: The medium was removed, the cells were lysed, and cAMP values were detected referring to the detection method described for the assay kit.

Row | EC50 [nM] | Compound
1 | 0.102 | CC[C@H](C)[C@H](NC(=O)[C@H](Cc1ccccc1)NC(=O)[C@H](CCC(=O)O)NC(=O)[C@H](CCCCNC(=O)COCCOCCNC(=O)COCCOCCNC(=O)CC[C@H](NC(=O)CCCCCCCCCCCCCCCCC(=O)O)C(=O)O)NC(=O)[C@H](C)NC(=O)[C@H](C)NC(=O)[C@H](CCCNC(=N)N)NC(=O)[C@H](CCC(=O)O)NC(=O)[C@H](CC(=O)O)NC(=O)[C@H](CC(C)C)NC(=O)[C@H](Cc1ccc(O)cc1)NC(=O)[C@H](CCCCN)NC(=O)[C@H](CO)NC(=O)[C@H](Cc1ccc(O)cc1)NC(=O)[C@H](CC(=O)O)NC(=O)[C@H](CO)NC(=O)[C@@H](NC(=O)[C@H](Cc1ccccc1)NC(=O)[C@@H](NC(=O)CNC(=O)[C@H](CCC(N)=O)NC(=O)[C@H](CO)NC(=O)[C@@H](N)Cc1c[nH]cn1)[C@@H](C)O)[C@@H](C)O)C(=O)N[C@@H](C)C(=O)N[C@@H](Cc1c[nH]c2ccccc12)C(=O)N[C@@H](CC(C)C)C(=O)N[C@@H](CCC(=O)O)C(=O)NCC(=O)NCC(=O)N1CCC[C@H]1C(=O)N[C@@H](CO)C(=O)N[C@@H](CO)C(=O)NCC(N)=O [Compound 38] (H-HSQGTFTSDYSKYLDERAAK([AEEA-AEEA-γGlu-C18 diacid])EFIAWLEGGPSSG-NH2; N-terminus assumed)
2 | 0.219 | CC[C@H](C)[C@H](NC(=O)[C@H](Cc1ccccc1)NC(=O)[C@H](CCC(=O)O)NC(=O)[C@H](CCCCNC(=O)COCCOCCNC(=O)COCCOCCNC(=O)CC[C@H](NC(=O)CCCCCCCCCCCCCCCCC(=O)O)C(=O)O)NC(=O)[C@H](C)NC(=O)[C@H](CCCCN)NC(=O)[C@H](CCCNC(=N)N)NC(=O)[C@H](CCC(=O)O)NC(=O)[C@H](CCC(=O)O)NC(=O)[C@H](CC(C)C)NC(=O)[C@H](Cc1ccc(O)cc1)NC(=O)[C@H](CCCCN)NC(=O)[C@H](CO)NC(=O)[C@H](Cc1ccc(O)cc1)NC(=O)[C@H](CC(=O)O)NC(=O)[C@H](CO)NC(=O)[C@@H](NC(=O)[C@H](Cc1ccccc1)NC(=O)[C@@H](NC(=O)CNC(=O)[C@H](CCC(N)=O)NC(=O)C(C)(C)NC(=O)[C@@H](N)Cc1c[nH]cn1)[C@@H](C)O)[C@@H](C)O)C(=O)N[C@@H](C)C(=O)N[C@@H](Cc1c[nH]c2ccccc12)C(=O)N[C@@H](CC(C)C)C(=O)N[C@@H](CCC(=O)O)C(=O)N[C@@H](C)C(=O)NCC(=O)NCC(=O)N1CCC[C@H]1C(=O)N[C@@H](CO)C(=O)N[C@@H](CO)C(=O)NCC(N)=O [Compound 44] (H-H[Aib]QGTFTSDYSKYLEERKAK([AEEA-AEEA-γGlu-C18 diacid])EFIAWLEAGGPSSG-NH2; N-terminus assumed)
3 | 0.048 | CC[C@H](C)[C@H](NC(=O)[C@H](Cc1ccccc1)NC(=O)[C@H](CCC(=O)O)NC(=O)[C@H](CCCCNC(=O)COCCOCCNC(=O)COCCOCCNC(=O)CC[C@H](NC(=O)CCCCCCCCCCCCCCCCC(=O)O)C(=O)O)NC(=O)[C@H](C)NC(=O)[C@H](CCCNC(=N)N)NC(=O)[C@H](CCCCN)NC(=O)[C@H](CCC(=O)O)NC(=O)[C@H](CC(=O)O)NC(=O)[C@H](CC(C)C)NC(=O)[C@H](Cc1ccc(O)cc1)NC(=O)[C@H](CCCCN)NC(=O)[C@H](CO)NC(=O)[C@H](Cc1ccc(O)cc1)NC(=O)[C@H](CC(=O)O)NC(=O)[C@H](CO)NC(=O)[C@@H](NC(=O)[C@H](Cc1ccccc1)NC(=O)[C@@H](NC(=O)CNC(=O)[C@H](CCC(N)=O)NC(=O)C(C)(C)NC(=O)[C@@H](N)Cc1c[nH]cn1)[C@@H](C)O)[C@@H](C)O)C(=O)N[C@@H](C)C(=O)N[C@@H](Cc1c[nH]c2ccccc12)C(=O)N[C@@H](CC(C)C)C(=O)N[C@@H](CCC(=O)O)C(=O)N[C@@H](C)C(=O)NCC(=O)NCC(=O)N1CCC[C@H]1C(=O)N[C@@H](CO)C(=O)N[C@@H](CO)C(=O)NCC(N)=O [Compound 50] (H-H[Aib]QGTFTSDYSKYLDEKRAK([AEEA-AEEA-γGlu-C18 diacid])EFIAWLEAGGPSSG-NH2; N-terminus assumed)
4 | 0.316 | CC(C)C[C@H](NC(=O)[C@H](Cc1c[nH]c2ccccc12)NC(=O)[C@H](C)NC(=O)[C@@H](NC(=O)[C@H](Cc1ccccc1)NC(=O)[C@H](CCC(=O)O)NC(=O)[C@H](CCCCNC(=O)COCCOCCNC(=O)COCCOCCNC(=O)CC[C@H](NC(=O)CCCCCCCCCCCCCCCCC(=O)O)C(=O)O)NC(=O)[C@H](C)NC(=O)[C@H](CCCNC(=N)N)NC(=O)[C@H](CCCCN)NC(=O)[C@H](CCC(=O)O)NC(=O)[C@H](CCC(=O)O)NC(=O)[C@H](CC(C)C)NC(=O)[C@H](Cc1ccc(O)cc1)NC(=O)[C@H](CCCCN)NC(=O)[C@H](CO)NC(=O)[C@H](Cc1ccc(O)cc1)NC(=O)[C@H](CC(=O)O)NC(=O)[C@H](CO)NC(=O)[C@@H](NC(=O)[C@H](Cc1ccccc1)NC(=O)[C@@H](NC(=O)CNC(=O)[C@H](CCC(N)=O)NC(=O)C(C)(C)NC(=O)[C@@H](N)Cc1c[nH]cn1)[C@@H](C)O)[C@@H](C)O)C(C)C)C(=O)N[C@@H](CCC(=O)O)C(=O)N[C@@H](C)C(=O)NCC(=O)NCC(=O)N1CCC[C@H]1C(=O)N[C@@H](CO)C(=O)N[C@@H](CO)C(=O)NCC(N)=O [Compound 53] (H-H[Aib]QGTFTSDYSKYLEEKRAK([AEEA-AEEA-γGlu-C18 diacid])EFVAWLEAGGPSSG-NH2; N-terminus assumed)
5 | 0.314 | CC[C@H](C)[C@H](NC(=O)[C@H](Cc1ccccc1)NC(=O)[C@H](CCC(=O)O)NC(=O)[C@H](CCCCNC(=O)COCCOCCNC(=O)COCCOCCNC(=O)CC[C@H](NC(=O)CCCCCCCCCCCCCCCCCCC(=O)O)C(=O)O)NC(=O)[C@H](C)NC(=O)[C@H](CCCCN)NC(=O)[C@H](CCCNC(=N)N)NC(=O)[C@H](CCC(=O)O)NC(=O)[C@H](CCC(=O)O)NC(=O)[C@H](CC(C)C)NC(=O)[C@H](Cc1ccc(O)cc1)NC(=O)[C@H](CCCCN)NC(=O)[C@H](CO)NC(=O)[C@H](Cc1ccc(O)cc1)NC(=O)[C@H](CC(=O)O)NC(=O)[C@H](CO)NC(=O)[C@@H](NC(=O)[C@H](Cc1ccccc1)NC(=O)[C@@H](NC(=O)CNC(=O)[C@H](CCC(N)=O)NC(=O)C(C)(C)NC(=O)[C@@H](N)Cc1c[nH]cn1)[C@@H](C)O)[C@@H](C)O)C(=O)N[C@@H](C)C(=O)N[C@@H](Cc1c[nH]c2ccccc12)C(=O)N[C@@H](CC(C)C)C(=O)N[C@@H](CCC(=O)O)C(=O)NCC(=O)NCC(=O)N1CCC[C@H]1C(=O)N[C@@H](CO)C(=O)N[C@@H](CO)C(=O)NCC(N)=O [Compound 68] (H-H[Aib]QGTFTSDYSKYLEERKAK([AEEA-AEEA-γGlu-C20 diacid])EFIAWLEGGPSSG-NH2; N-terminus assumed)
6 | 0.725 | CC(C)C[C@H](NC(=O)[C@H](Cc1c[nH]c2ccccc12)NC(=O)[C@H](C)NC(=O)[C@@H](NC(=O)[C@H](Cc1ccccc1)NC(=O)[C@H](CCC(=O)O)NC(=O)[C@H](CCCCNC(=O)COCCOCCNC(=O)COCCOCCNC(=O)CC[C@H](NC(=O)CCCCCCCCCCCCCCCCC(=O)O)C(=O)O)NC(=O)[C@H](C)NC(=O)[C@H](CCCNC(=N)N)NC(=O)[C@H](CCCCN)NC(=O)[C@H](CCC(=O)O)NC(=O)[C@H](CCC(=O)O)NC(=O)[C@H](CC(C)C)NC(=O)[C@H](Cc1ccc(O)cc1)NC(=O)[C@H](CCCCN)NC(=O)[C@H](CO)NC(=O)[C@H](Cc1ccc(O)cc1)NC(=O)[C@H](CC(=O)O)NC(=O)[C@H](CO)NC(=O)[C@@H](NC(=O)[C@H](Cc1ccccc1)NC(=O)[C@@H](NC(=O)CNC(=O)[C@H](CCC(N)=O)NC(=O)C(C)(C)NC(=O)[C@@H](N)Cc1c[nH]cn1)[C@@H](C)O)[C@@H](C)O)C(C)C)C(=O)N[C@@H](CCC(=O)O)C(=O)NCC(=O)NCC(=O)N1CCC[C@H]1C(=O)N[C@@H](CO)C(=O)N[C@@H](CO)C(=O)NCC(N)=O [Compound 74] (H-H[Aib]QGTFTSDYSKYLEEKRAK([AEEA-AEEA-γGlu-C18 diacid])EFVAWLEGGPSSG-NH2; N-terminus assumed)
